The assay has as its system test plant species. Briefly: Post-emergent herbicidal activity test (greenhouse, foliar spray, visual growth reduction). Conditions: post-emergence, 336 h, 140 g ai/ha. The class given is in vivo. The gist of the method: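 Greenhouse plants at first–second true leaf stage sprayed overhead at 187 L/ha with compound in acetone/water/isopropanol/DMSO/crop oil/X-77 carrier; controls received solvent blank. Injury rated visually after 14 d on a 0–100% scale versus untreated and control plants, converted to growth reduction.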

[1] abbreviates: ECHCG: barnyardgrass (Echinochloa crus-galli), 14 days after application, read-out: Visual Growth Reduction (%) 14 Days After Application, ECHCG.
Setting [2] is: IPOHE: ivy-leaf morning glory (Ipomoea hederacea), 14 days after application, read-out: Visual Growth Reduction (%) 14 Days After Application, IPOHE.
Where [3] appears, read: KCHSC: kochia (Bassia scoparia), 14 days after application, read-out: Visual Growth Reduction (%) 14 Days After Application, KCHSC.
Where [4] appears, read: ORYSA: rice (Oryza sativa), 14 days after application, read-out: Visual Growth Reduction (%) 14 Days After Application, ORYSA.
Setting [5] is: SETFA: giant foxtail (Setaria faberi), 14 days after application, read-out: Visual Growth Reduction (%) 14 Days After Application, SETFA.
The mark [6] stands for this setting: SORVU: grain sorghum (Sorghum vulgare), 14 days after application, read-out: Visual Growth Reduction (%) 14 Days After Application, SORVU.
The mark [7] stands for this setting: STEME: common chickweed (Stellaria media), 14 days after application, read-out: Visual Growth Reduction (%) 14 Days After Application, STEME.
The mark [8] stands for this setting: TRZAS: wheat, spring (Triticum aestivum), 14 days after application, read-out: Visual Growth Reduction (%) 14 Days After Application, TRZAS.
The mark [9] stands for this setting: blackgrass (Alopecurus myosuroides), 14 Days After Application, read-out: Visual Growth Reduction (%) ALOMY.
[10] abbreviates: canada thistle (Cirsium arvense), 14 Days After Application, read-out: Visual Growth Reduction (%) CIRAR.
[11] abbreviates: crabgrass (Digitaria sanguinalis), 14 Days After Application, read-out: Visual Growth Reduction (%) DIGSA.
Setting [12] is: lambsquarters (Chenopodium album), 14 Days After Application, read-out: Visual Growth Reduction (%) CHEAL.
[13] abbreviates: redroot pigweed (Amaranthus retroflexus), 14 Days After Application, read-out: Visual Growth Reduction (%) AMARE.
Setting [14] is: wild oat (Avena fatua), 14 Days After Application, read-out: Visual Growth Reduction (%) AVEFA.
Where [15] appears, read: yellow nutsedge (Cyperus esculentus), 14 Days After Application, read-out: Visual Growth Reduction (%) CYPES.

Structures are written as SMILES. Where two headings read alike, the source gives them in different places.

For the compound `COC(=O)c1nc(-c2cccc(C(F)(F)F)c2F)ccc1Cl` [F289, Methyl 3-chloro-6-(2-fluoro-3-(trifluoromethyl)phenyl)picolinate], the pest or weed control at 140 g/ha by setting is: under setting [1], 0 to 29%; under setting [2], 45 to 59%; under setting [3], 0 to 29%; under setting [4], 0 to 29%; under setting [5], 0 to 29%; under setting [6], 0 to 29%. The pest or weed control at 140 g/ha reads like this: under setting [7], 0 to 29%; under setting [8], 0 to 29%; under setting [9], 0 to 29%; under setting [10], 30 to 44%; under setting [11], 0 to 29%; under setting [12], 30 to 44%. The pest or weed control at 140 g/ha is, setting by setting: under setting [13], 0 to 29%; under setting [14], 0 to 29%; under setting [15], 0 to 29%.

On to `COC(=O)c1nc(-c2cccc(OC(F)(F)F)c2F)ccc1Cl` [F290, Methyl 3-chloro-6-(2-fluoro-3-(trifluoromethoxy)phenyl)picolinate], for which the pest or weed control at 140 g/ha lay within 0 to 29% under setting [1]; 75 to 84% under setting [2]; 0 to 29% under setting [3]; 0 to 29% under setting [4]; 0 to 29% under setting [5]; 0 to 29% under setting [6]. Further, the pest or weed control at 140 g/ha was in the range of 0 to 29% under setting [7]; 0 to 29% under setting [8]; 0 to 29% under setting [9]; 0 to 29% under setting [10]; 0 to 29% under setting [11]; 0 to 29% under setting [12]. Besides, the pest or weed control at 140 g/ha reads like this: under setting [13], 0 to 29%; under setting [14], 0 to 29%; under setting [15], 60 to 74%.

Take `COC(=O)c1nc(-c2cc(F)c(OC)cc2F)ccc1Cl` [F291, Methyl 3-chloro-6-(2,5-difluoro-4-methoxyphenyl) picolinate]: the pest or weed control at 140 g/ha reads like this: under setting [1], 0 to 29%; under setting [2], 0 to 29%; under setting [3], 0 to 29%; under setting [4], 0 to 29%; under setting [5], 0 to 29%; under setting [6], 0 to 29%. In addition, the pest or weed control at 140 g/ha lay within 0 to 29% under setting [7]; 0 to 29% under setting [8]; 0 to 29% under setting [9]; 30 to 44% under setting [10]; 0 to 29% under setting [11]; 45 to 59% under setting [12]. The pest or weed control at 140 g/ha is, setting by setting: under setting [13], 0 to 29%; under setting [14], 0 to 29%; under setting [15], 0 to 29%.

Consider `COC(=O)c1nc(-c2ccc(F)c(OC)c2)ccc1Cl` [F292, Methyl 3-chloro-6-(4-fluoro-3-methoxyphenyl) picolinate], for which the pest or weed control at 140 g/ha is 0 to 29% under setting [1]; 30 to 44% under setting [2]; 45 to 59% under setting [3]; 0 to 29% under setting [4]; 0 to 29% under setting [5]; 0 to 29% under setting [6]. Also, the pest or weed control at 140 g/ha under setting [7] lay in the range of 0 to 29%; the pest or weed control at 140 g/ha under setting [8] was 0 to 29%; the pest or weed control at 140 g/ha under setting [9] lay in the range of 0 to 29%; the pest or weed control at 140 g/ha under setting [10] lay within 60 to 74%; the pest or weed control at 140 g/ha under setting [11] fell in the range of 0 to 29%; the pest or weed control at 140 g/ha under setting [12] lay in the range of 85 to 94%. Further, the pest or weed control at 140 g/ha under setting [13] lay in the range of 0 to 29%, the pest or weed control at 140 g/ha under setting [14] was 0 to 29% and the pest or weed control at 140 g/ha under setting [15] was in the range of 60 to 74%.

`Cc1c(C(F)(F)F)ccc(-c2ccc(Cl)c(C(=O)O)n2)c1F` [F293, 3-Chloro-6-(2-fluoro-3-methyl-4-(trifluoromethyl)phenyl)picolinic acid]: the pest or weed control at 140 g/ha reads like this: under setting [1], 0 to 29%; under setting [2], 0 to 29%; under setting [3], 0 to 29%; under setting [4], 0 to 29%; under setting [5], 0 to 29%; under setting [6], 0 to 29%. Moreover, the pest or weed control at 140 g/ha lay in the range of 0 to 29% under setting [7]; 0 to 29% under setting [8]; 0 to 29% under setting [9]; 30 to 44% under setting [10]; 0 to 29% under setting [11]; 45 to 59% under setting [12]. Also, the pest or weed control at 140 g/ha lay within 0 to 29% under setting [13], 0 to 29% under setting [14] and 0 to 29% under setting [15].

Consider `O=C(O)c1nc(-c2ccc(C(F)(F)F)c(C(F)F)c2F)c(F)cc1Cl` [F294, 3-Chloro-6-(3-(difluoromethyl)-2-fluoro-4-(trifluoromethyl)phenyl)-5-fluoropicolinic acid], for which the pest or weed control at 140 g/ha runs as follows: under setting [1], 60 to 74%; under setting [2], 95 to 100%; under setting [3], 75 to 84%; under setting [4], 0 to 29%; under setting [5], 85 to 94%; under setting [6], 95 to 100%. The pest or weed control at 140 g/ha is, setting by setting: under setting [7], 0 to 29%; under setting [8], 60 to 74%; under setting [9], 75 to 84%; under setting [10], 75 to 84%; under setting [11], 85 to 94%; under setting [12], 85 to 94%. In addition, the pest or weed control at 140 g/ha was in the range of 95 to 100% under setting [13], 60 to 74% under setting [14] and 0 to 29% under setting [15].

For the compound `COC(=O)c1nc(-c2ccc(C(F)(F)F)c(OC)c2)c(F)cc1Cl` [F295, Methyl 3-chloro-5-fluoro-6-(3-methoxy-4-(trifluoromethyl)phenyl)picolinate], the pest or weed control at 140 g/ha lay within 0 to 29% under setting [1]; 60 to 74% under setting [2]; 0 to 29% under setting [3]; 0 to 29% under setting [4]; 0 to 29% under setting [5]; 0 to 29% under setting [6]. Also, the pest or weed control at 140 g/ha is 0 to 29% under setting [7]; 0 to 29% under setting [8]; 0 to 29% under setting [9]; 60 to 74% under setting [10]; 45 to 59% under setting [11]; 30 to 44% under setting [12]. Further, the pest or weed control at 140 g/ha was in the range of 0 to 29% under setting [13], 0 to 29% under setting [14] and 75 to 84% under setting [15].

With `COC(=O)c1nc(-c2ccc(C(F)(F)F)c(OC)c2)ccc1Cl` [F296, Methyl 3-chloro-6-(3-methoxy-4-(trifluoromethyl)phenyl)picolinate], the pest or weed control at 140 g/ha fell in the range of 0 to 29% under setting [1]; 45 to 59% under setting [2]; 0 to 29% under setting [3]; 0 to 29% under setting [4]; 0 to 29% under setting [5]; 0 to 29% under setting [6]. Besides, the pest or weed control at 140 g/ha under setting [7] is 0 to 29%; the pest or weed control at 140 g/ha under setting [8] fell in the range of 0 to 29%; the pest or weed control at 140 g/ha under setting [9] is 0 to 29%; the pest or weed control at 140 g/ha under setting [10] is 60 to 74%; the pest or weed control at 140 g/ha under setting [11] lay within 0 to 29%; the pest or weed control at 140 g/ha under setting [12] lay in the range of 0 to 29%. For the same compound, the pest or weed control at 140 g/ha lay in the range of 0 to 29% under setting [13], 0 to 29% under setting [14] and 0 to 29% under setting [15].

On to `COC(=O)c1nc(-c2ccc(C(F)(F)F)c3ccoc23)c(F)cc1Cl` [F297, Methyl 3-chloro-5-fluoro-6-(4-(trifluoromethyl)benzofuran-7-yl) picolinate], for which the pest or weed control at 140 g/ha fell in the range of 0 to 29% under setting [1]; 95 to 100% under setting [2]; 45 to 59% under setting [3]; 0 to 29% under setting [4]; 60 to 74% under setting [5]; 60 to 74% under setting [6]. The pest or weed control at 140 g/ha reads like this: under setting [7], 0 to 29%; under setting [8], 0 to 29%; under setting [9], 0 to 29%; under setting [10], 85 to 94%; under setting [11], 75 to 84%; under setting [12], 85 to 94%. The pest or weed control at 140 g/ha was 85 to 94% under setting [13], 0 to 29% under setting [14] and 0 to 29% under setting [15].

Source of the values: patent publication US20230017045A1, “PYRIDINE AND PYRIMIDINE CARBOXYLATE HERBICIDES AND METHODS OF USE THEREOF” (Dow AgroSciences LLC, priority 2017, published 2023).
